Assay results reported in patent publication US20230085307A1, “PYRIDAZINONE COMPOUND AND HERBICIDE” (NISSAN CHEMICAL CORPORATION, priority 2019, published 2023).

test system: Japanese bulrush; assay: Test Example 2: herbicidal activity, application during weed generation under submerged conditions (Table 17, symbol B); assay type: in vivo, Japanese bulrush (Schoenoplectus juncoides); settings: AAH 320 g/ha; application during weed generation, submerged conditions
Method in brief: (§1)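 Alluvial soil in Wagner pots was flooded to 4 cm depth and sown with the three weeds together; pots were kept in a greenhouse at 25° C. to 30° C. At the one to two leaf stage, an emulsion formulation diluted in water to a set rate went onto the water surface; scored three weeks later.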

Structure (SMILES)	herbicidal effect rating, B: Japanese bulrush
Cc1nn(C)c(=O)c(-c2c(-c3ccc(CS(C)(=O)=O)cc3)sc3ccc(F)cc23)c1O [2-334]	0 (Herbicidal rate of 5% or less (almost no effect))
CSCCCOc1ccc(-c2sc3ccccc3c2-c2c(O)c(C)nn(C)c2=O)cc1 [1-222]	3 (Herbicidal rate of 40% or more and less than 70%)
COc1cc(OC)cc(-c2sc3ccc(F)cc3c2-c2c(O)c(C)nn(C)c2=O)c1 [2-360]	0 (Herbicidal rate of 5% or less (almost no effect))

test system: barnyard grass; assay: Test Example 3: herbicidal effect by foliage application, Wagner pot (Table 18, symbol H); assay type: in vivo, barnyard grass (Echinochloa crus-galli); settings: 320 g/ha
Method in brief: (§2)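 Plants were sown in alluvial soil held under 0.1–0.5 cm standing water and grown 14 days in a greenhouse at 25–30 °C. An emulsifiable formulation, water-diluted to the set dose, was then sprayed onto the foliage, and effects were scored three weeks later using previously defined criteria.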

Structure (SMILES)	herbicidal effect on H (barnyard grass), rating 0-5
CSCCCOc1ccc(-c2sc3ccccc3c2-c2c(O)c(C)nn(C)c2=O)cc1 [1-222]	5 (Herbicidal rate of 90% or more (almost completely withered))

same assay, conditions: amount of applied herbicide 320 g/ha

Structure (SMILES)	herbicidal effect on H: barnyard grass
Cc1nn(C)c(=O)c(-c2c(-c3ccc(CS(C)(=O)=O)cc3)sc3ccc(F)cc23)c1O [2-334]	5 (Herbicidal rate of 90% or more (almost completely withered))
COc1cc(OC)cc(-c2sc3ccc(F)cc3c2-c2c(O)c(C)nn(C)c2=O)c1 [2-360]	5 (Herbicidal rate of 90% or more (almost completely withered))

test system: oval-leafed pondweed; assay: Test Example 2: herbicidal activity, application during weed generation under submerged conditions (Table 17, symbol C); assay type: in vivo, oval-leafed pondweed (Monochoria vaginalis); settings: AAH 320 g/ha; application during weed generation, submerged conditions
Method in brief: as §1

Structure (SMILES)	herbicidal effect rating, C: oval-leafed pondweed
Cc1nn(C)c(=O)c(-c2c(-c3ccc(CS(C)(=O)=O)cc3)sc3ccc(F)cc23)c1O [2-334]	0 (Herbicidal rate of 5% or less (almost no effect))
CSCCCOc1ccc(-c2sc3ccccc3c2-c2c(O)c(C)nn(C)c2=O)cc1 [1-222]	4 (Herbicidal rate of 70% or more and less than 90%)
COc1cc(OC)cc(-c2sc3ccc(F)cc3c2-c2c(O)c(C)nn(C)c2=O)c1 [2-360]	0 (Herbicidal rate of 5% or less (almost no effect))

test system: rice flat sedge; assay: Test Example 3: herbicidal effect by foliage application, Wagner pot (Table 18, symbol E); assay type: in vivo, rice flat sedge (Cyperus iria); settings: 320 g/ha
Method in brief: as §2

Structure (SMILES)	herbicidal effect on E (rice flat sedge), rating 0-5
CSCCCOc1ccc(-c2sc3ccccc3c2-c2c(O)c(C)nn(C)c2=O)cc1 [1-222]	4 (Herbicidal rate of 70% or more and less than 90%)

same assay, conditions: amount of applied herbicide 320 g/ha

Structure (SMILES)	herbicidal effect on E: rice flat sedge
Cc1nn(C)c(=O)c(-c2c(-c3ccc(CS(C)(=O)=O)cc3)sc3ccc(F)cc23)c1O [2-334]	5 (Herbicidal rate of 90% or more (almost completely withered))
COc1cc(OC)cc(-c2sc3ccc(F)cc3c2-c2c(O)c(C)nn(C)c2=O)c1 [2-360]	3 (Herbicidal rate of 40% or more and less than 70%)

test system: late watergrass; assay: Test Example 1: herbicidal activity, application before weed generation under submerged conditions (Table 16, symbol A); assay type: in vivo, late watergrass (Echinochloa oryzicola); settings: 320 g/ha applied herbicide
Method in brief: (§3)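 Alluvial soil was flooded to 4 cm depth, weed seeds were sown mixed and 2.5-leaf rice seedlings were transplanted. On sowing day, the compound's emulsion, diluted in water to a set dose, was applied to the water surface. Plants grew at 25–30 °C and were scored 0–5 after three weeks.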

Structure (SMILES)	Herbicidal effect on A: late watergrass (grade 0-5)
Cc1nn(C)c(=O)c(-c2c(-c3ccc(CS(C)(=O)=O)cc3)sc3ccc(F)cc23)c1O [2-334]	3 (Herbicidal rate of 40% or more and less than 70%)
CSCCCOc1ccc(-c2sc3ccccc3c2-c2c(O)c(C)nn(C)c2=O)cc1 [1-222]	5 (Herbicidal rate of 90% or more (almost completely withered))
COc1cc(OC)cc(-c2sc3ccc(F)cc3c2-c2c(O)c(C)nn(C)c2=O)c1 [2-360]	3 (Herbicidal rate of 40% or more and less than 70%)

test system: late watergrass; assay: Test Example 2: herbicidal activity, application during weed generation under submerged conditions (Table 17, symbol A); assay type: in vivo, late watergrass (Echinochloa oryzicola); settings: AAH 320 g/ha; application during weed generation, submerged conditions
Method in brief: as §1

Structure (SMILES)	herbicidal effect rating, A: late watergrass
Cc1nn(C)c(=O)c(-c2c(-c3ccc(CS(C)(=O)=O)cc3)sc3ccc(F)cc23)c1O [2-334]	3 (Herbicidal rate of 40% or more and less than 70%)
CSCCCOc1ccc(-c2sc3ccccc3c2-c2c(O)c(C)nn(C)c2=O)cc1 [1-222]	5 (Herbicidal rate of 90% or more (almost completely withered))
COc1cc(OC)cc(-c2sc3ccc(F)cc3c2-c2c(O)c(C)nn(C)c2=O)c1 [2-360]	2 (Herbicidal rate of 20% or more and less than 40%)

test system: Chinese sprangletop; assay: Test Example 3: herbicidal effect by foliage application, Wagner pot (Table 18, symbol D); assay type: in vivo, chinese sprangletop (Leptochloa chinensis); settings: 320 g/ha
Method in brief: as §2

Structure (SMILES)	herbicidal effect on D (Chinese sprangletop), rating 0-5
CSCCCOc1ccc(-c2sc3ccccc3c2-c2c(O)c(C)nn(C)c2=O)cc1 [1-222]	5 (Herbicidal rate of 90% or more (almost completely withered))

same assay, conditions: amount of applied herbicide 320 g/ha

Structure (SMILES)	herbicidal effect on D: Chinese sprangletop
Cc1nn(C)c(=O)c(-c2c(-c3ccc(CS(C)(=O)=O)cc3)sc3ccc(F)cc23)c1O [2-334]	4 (Herbicidal rate of 70% or more and less than 90%)
COc1cc(OC)cc(-c2sc3ccc(F)cc3c2-c2c(O)c(C)nn(C)c2=O)c1 [2-360]	4 (Herbicidal rate of 70% or more and less than 90%)

test system: oval-leafed pondweed; assay: Test Example 1: herbicidal activity, application before weed generation under submerged conditions (Table 16, symbol C); assay type: in vivo, oval-leafed pondweed (Monochoria vaginalis); settings: 320 g/ha applied herbicide
Method in brief: as §3

Structure (SMILES)	Herbicidal effect on C: oval-leafed pondweed (grade 0-5)
Cc1nn(C)c(=O)c(-c2c(-c3ccc(CS(C)(=O)=O)cc3)sc3ccc(F)cc23)c1O [2-334]	0 (Herbicidal rate of 5% or less (almost no effect))
CSCCCOc1ccc(-c2sc3ccccc3c2-c2c(O)c(C)nn(C)c2=O)cc1 [1-222]	4 (Herbicidal rate of 70% or more and less than 90%)
COc1cc(OC)cc(-c2sc3ccc(F)cc3c2-c2c(O)c(C)nn(C)c2=O)c1 [2-360]	0 (Herbicidal rate of 5% or less (almost no effect))

test system: Japanese bulrush; assay: Test Example 1: herbicidal activity, application before weed generation under submerged conditions (Table 16, symbol B); assay type: in vivo, Japanese bulrush (Schoenoplectus juncoides); settings: 320 g/ha applied herbicide
Method in brief: as §3

Structure (SMILES)	Herbicidal effect on B: Japanese bulrush (grade 0-5)
Cc1nn(C)c(=O)c(-c2c(-c3ccc(CS(C)(=O)=O)cc3)sc3ccc(F)cc23)c1O [2-334]	0 (Herbicidal rate of 5% or less (almost no effect))
CSCCCOc1ccc(-c2sc3ccccc3c2-c2c(O)c(C)nn(C)c2=O)cc1 [1-222]	4 (Herbicidal rate of 70% or more and less than 90%)
COc1cc(OC)cc(-c2sc3ccc(F)cc3c2-c2c(O)c(C)nn(C)c2=O)c1 [2-360]	2 (Herbicidal rate of 20% or more and less than 40%)
